# Measured values from publication PMC4424274, “Evaluation of [^11C]CB184 for imaging and quantification of TSPO overexpression in a rat model of herpes encephalitis” (European Journal of Nuclear Medicine and Molecular Imaging, 2015).
# Values joined by “and” are separate entries in the source; they are usually repeats but may differ in a detail not shown here. Equal values may be shown once. Read-outs that look alike come from different tables or passages of the source.
# Assays:
# [1] = Plasma clearance and plasma metabolite analysis; format: in vivo, rat; details: metabolite-corrected plasma, intravenous injection, rats
# Method: (§1) PET scans with arterial blood sampling were performed in a different set of rats to generate input for pharmacokinetic modelling. For the arterial blood sampling a cannula was inserted into the femoral artery after induction of anaesthesia. The femoral vein was additionally cannulated for PET tracer injection. After cannulation, the rats were positioned in the camera and a transmission scan was acquired using a ^57Co point source. […] A 0.1 ml blood sample of was taken at 0, 5, 10, 15, 20, 30, 45, 60, 75, 90, 120, 180, 300, 450, 600, 900, 1,800 and 3,600 s after injection. A larger blood sample of 0.5 ml was taken at three time points (5, 15, 30 and/or 60 min) for metabolite analysis. After collection of each blood sample, heparinized saline was injected to prevent large changes in blood pressure. A 25 μl aliquot of whole blood was extracted from each sample for radioactivity measurement. The remainder of each sample was centrifuged at 13,000 rpm (15,996 g) for 8 min, and 25 μl plasma was taken for radioactivity measurement. The radioactivity in blood and plasma was measured with a gamma counter.
# Radioactive metabolites in plasma were measured using the extra blood samples taken at three time points during each scan (5, 15, 30 and/or 60 min). After centrifugation and collection of the plasma sample for radioactive measurement, as described above, the remaining plasma was diluted with acetonitrile (1.5 times the amount of plasma) and vortex-mixed. The plasma suspension was centrifuged at 5,300 rpm (3,030 g) for 3 min, and divided into supernatant and pellet. […] Fractions of 30 s were collected and measured in the gamma counter.
# The percentage of metabolites in plasma was calculated by fitting an exponential function to the values obtained from the HPLC analysis. The plasma values obtained from the blood samples during the PET scan were then corrected for the presence of these metabolites, and used together with the whole-blood curve for further analysis. Metabolite corrected plasma TACs were fitted for each individual rat using iterative nonlinear least-squares fitting to the biexponential equation: SUVt = Ae^−αt + Be^−βt, where SUVt is the plasma SUV at time t, α and β are the apparent distribution and elimination rate constants (s^−1), respectively, and A and B are the corresponding zero-time intercepts. The weighting factors were the reciprocals of the plasma SUV squared. Distribution and elimination half-lives (seconds) were calculated as the natural logarithm of 2 divided by α and β, respectively.
# TSPO [2] = target: T1, TSPO (Rattus norvegicus, UniProt P16257); experiment: Kinetic modelling of PET data (2TCMR, Logan): BPND and VT; format: in vivo
# T1 construct: from tissue; host or cells: Brain regions and peripheral organs of male Wistar rats, measured in vivo by PET and ex vivo by gamma counting
# Method: as §1
# The TACs of those rats in which blood sampling was performed, together with their corresponding whole-blood and metabolite-corrected plasma curves, were used for pharmacokinetic modelling using PMOD v3.3 (PMOD Technologies, Zürich, Switzerland). […] The reversible two-tissue compartment model (2TCMR) with K 1/k 2 fixed to the whole cortex value and a fixed blood volume of 3 % were used to calculate the V T and nondisplaceable binding potential (BPND, calculated as k 3/k 4 [29]).
# [3] = parameters: method as in PMID 19050880; details: cited from earlier work
# [4] = lipophilicity; cited from earlier work
# TSPO [5] = target: T1, TSPO; experiment: Ex vivo biodistribution of [^11C]CB184 in control and HSE rats; details: 5 mg/kg unlabelled PK11195 5 min before tracer injection; control and HSE rats
# Method: PET scans were performed using a microPET Focus 220 camera (Siemens Medical Solutions Inc., Malvern, PA) on either day 6 or day 7 after inoculation with HSV-1 [18], depending on the severity of clinical symptoms. The rats were anaesthetized with 5 % isoflurane mixed with medical air at a flow rate of […]. After induction, anaesthesia was maintained with 1.5 – 2 % of isoflurane. The anaesthetized rats were positioned in the camera in a supine position with the head in the field of view. The PET tracer [^11C]CB184 was manually injected via the penile vein, and at the same time a dynamic 60-min scan was started. […] For 30 min the animals were kept under anaesthesia on the operation table after injection of the PET tracer into the penile vein, and were then placed in the scanner for a 30-min dynamic scan. A transmission scan was obtained in all rats using a ^57Co point source for attenuation and scatter correction. In the pretreated group, 5 mg/kg unlabelled PK11195 (Sigma-Aldrich, St. Louis, MO) in dimethyl sulphoxide (DMSO) at a concentration of 10 mg/ml was administered via a tail vein 5 min before injection of the PET tracer.
# The brain and peripheral organs were excised and dissected, and blood was centrifuged to collect a plasma sample. Tissues were weighed and radioactivity was measured in a gamma counter (LKB Wallac, Turku, Finland). Tracer uptake in each region was corrected for the injected tracer dose and body weight and expressed as standardized uptake value (SUV), which was defined as: radioactivity (MBq/cm^3)/[injected dose (MBq)/body weight (g)].
# TSPO [6] = target: T1, TSPO; details: HSE rat model; cited from earlier work
# [7] = control rats (PBS group), k3/k4
compound,measurement,setting,value
"CC[C@@H](C)N([11CH3])C(=O)c1cc2ccccc2c(-c2ccccc2Cl)n1 [(R)-[^11C]PK11195, reference compound]",Distribution half-life in plasma,[1],0.367 ± 0.12 min
same,Elimination half-life in plasma,[1],65 ± 46 min
same,"Binding potential (BPND), Amygdala","TSPO [2]; HSE group, k3/k4",1.92 ± 0.73
same,"Binding potential (BPND), Cerebellum","TSPO [2]; HSE group, k3/k4",1.89 ± 0.39
same,"Binding potential (BPND), Frontal cortex","TSPO [2]; HSE group, k3/k4",1.54 ± 0.54
same,"Binding potential (BPND), Hippocampus","TSPO [2]; HSE group, k3/k4",1.39 ± 0.58
same,"Binding potential (BPND), Hypothalamus","TSPO [2]; HSE group, k3/k4",2.28 ± 0.84
same,"Binding potential (BPND), Midbrain","TSPO [2]; HSE group, k3/k4",1.34 ± 0.42
same,"Binding potential (BPND), Olfactory bulb","TSPO [2]; HSE group, k3/k4",4.03 ± 1.20
same,"Binding potential (BPND), Pons","TSPO [2]; HSE group, k3/k4",2.44 ± 0.41
same,"Binding potential (BPND), Rest cortices","TSPO [2]; HSE group, k3/k4",1.62 ± 0.60
same,"Binding potential (BPND), Septum","TSPO [2]; HSE group, k3/k4",1.34 ± 0.57
same,"Binding potential (BPND), Striatum","TSPO [2]; HSE group, k3/k4",1.03 ± 0.43
same,"Binding potential (BPND), Thalamus","TSPO [2]; HSE group, k3/k4",1.03 ± 0.51
same,"Binding potential (BPND), Whole brain","TSPO [2]; HSE group, k3/k4",1.72 ± 0.49
same,"Binding potential (BPND), Amygdala",TSPO [2]; [7],1.65 ± 0.62
same,"Binding potential (BPND), Cerebellum",TSPO [2]; [7],1.51 ± 0.60
same,"Binding potential (BPND), Frontal cortex",TSPO [2]; [7],1.35 ± 0.51
same,"Binding potential (BPND), Hippocampus",TSPO [2]; [7],0.98 ± 0.44
same,"Binding potential (BPND), Hypothalamus",TSPO [2]; [7],1.92 ± 0.82
same,"Binding potential (BPND), Medulla",TSPO [2]; [7],1.7 ± 0.6 and 1.65 ± 0.60
same,"Binding potential (BPND), Midbrain",TSPO [2]; [7],0.96 ± 0.49
same,"Binding potential (BPND), Olfactory bulb",TSPO [2]; [7],3.76 ± 1.16
same,"Binding potential (BPND), Pons",TSPO [2]; [7],1.74 ± 0.69
same,"Binding potential (BPND), Rest cortices",TSPO [2]; [7],1.33 ± 0.46
same,"Binding potential (BPND), Septum",TSPO [2]; [7],1.20 ± 0.38
same,"Binding potential (BPND), Striatum",TSPO [2]; [7],0.88 ± 0.33
same,"Binding potential (BPND), Thalamus",TSPO [2]; [7],0.75 ± 0.35
same,"Binding potential (BPND), Whole brain",TSPO [2]; [7],1.38 ± 0.49
same,"Increase of BPND in the medulla, HSE rats vs. control rats",TSPO [2]; medulla,55%
same,Percentage of unchanged tracer in rat brain homogenate,[3]; 20 min after injection,93 ± 4%
same,Percentage of unchanged tracer in rat brain homogenate,[3]; 40 min after injection,90 ± 7%
same,logP,[4],2.54
"CCC(C)N(C)C(=O)c1cc2ccccc2c(-c2ccccc2Cl)n1 (centres unmarked) [PK11195, reference compound]",Effect of pretreatment on [^11C]CB184 binding to TSPO,TSPO [5],blocked
COc1ccc(O[11CH3])c(CN(C(C)=O)c2cc(F)ccc2Oc2ccccc2)c1 [[^11C]DAA1106],Uptake in vivo in HSE rats vs. control rats,TSPO [6],did not show significantly higher uptake
